In ChEMBL document CHEMBL3351875, “Synthesis of Deuterated Benzopyran Derivatives as Selective COX-2 Inhibitors with Improved Pharmacokinetic Properties” (ACS Med Chem Lett, 2014):
Blank lines part the entries; values can stand above or below the molecule they belong to.

How the values were obtained:
[1] = Volume of distribution in Sprague-Dawley rat at 10 mg/kg, iv measured during 1 to 24 hrs by LC-MS method; assay type: ADME, organism-based; parameters: dose 10 mg/kg, route intravenous; conditions: in vivo
[2] = Half life in Sprague-Dawley rat at 30 mg/kg, po measured during 1 to 24 hrs by LC-MS method; assay type: ADME, organism-based; parameters: dose 30 mg/kg, route oral; conditions: in vivo
[3] = Tmax in Sprague-Dawley rat at 30 mg/kg, po measured during 1 to 24 hrs by LC-MS method; assay type: ADME, organism-based; parameters: dose 30 mg/kg, route oral; conditions: in vivo
[4] = Cmax in Sprague-Dawley rat at 10 mg/kg, iv measured during 1 to 24 hrs by LC-MS method; assay type: ADME, organism-based; parameters: dose 10 mg/kg, route intravenous; conditions: in vivo
[5] = Apparent oral clearance in Sprague-Dawley rat at 10 mg/kg, iv measured during 1 to 24 hrs by LC-MS method; assay type: ADME, organism-based; parameters: dose 10 mg/kg, route oral; conditions: in vivo
[6] = Apparent oral clearance in Sprague-Dawley rat at 30 mg/kg, po measured during 1 to 24 hrs by LC-MS method; assay type: ADME, organism-based; parameters: dose 30 mg/kg, route oral; conditions: in vivo
[7] = Oral bioavailability in Sprague-Dawley rat at 30 mg/kg measured during 1 to 24 hrs by LC-MS method; assay type: ADME, organism-based; conditions: in vivo
[8] = Cmax in Sprague-Dawley rat at 30 mg/kg, po measured during 1 to 24 hrs by LC-MS method; assay type: ADME, organism-based; parameters: dose 30 mg/kg, route oral; conditions: in vivo
[9] = AUC (0 to infinity) in Sprague-Dawley rat at 10 mg/kg, iv measured during 1 to 24 hrs by LC-MS method; assay type: ADME, organism-based; parameters: time infinity, dose 10 mg/kg, route intravenous; conditions: plasma
Rattus norvegicus [10] = test: Volume of distribution in Sprague-Dawley rat at 30 mg/kg, po measured during 1 to 24 hrs by LC-MS method; assay type: ADME, organism-based; parameters: dose 30 mg/kg, route oral; conditions: in vivo
[11] = AUC (0 to infinity) in Sprague-Dawley rat at 30 mg/kg, po measured during 1 to 24 hrs by LC-MS method; assay type: ADME, organism-based; parameters: time infinity, dose 30 mg/kg, route oral; conditions: plasma
Rattus norvegicus [12] = test: Half life in Sprague-Dawley rat at 10 mg/kg, iv measured during 1 to 24 hrs by LC-MS method; assay type: ADME, organism-based; parameters: dose 10 mg/kg, route intravenous; conditions: in vivo
Rattus norvegicus [13] = test: Half life in Sprague-Dawley rat at 5 mg/kg, po measured during 1 to 24 hrs by LC-MS method; assay type: ADME, organism-based; parameters: dose 5 mg/kg, route oral; conditions: in vivo
Rattus norvegicus [14] = test: Antiinflammatory activity in orally dosed Sprague-Dawley rat model of carrageenan-induced foot paw edema assessed as reduction in edema by plethysmometry; assay type: functional, organism-based
Rattus norvegicus [15] = test: AUC (0 to infinity) in Sprague-Dawley rat at 5 mg/kg, po measured during 1 to 24 hrs by LC-MS method; assay type: ADME, organism-based, Plasma; parameters: time infinity, dose 5 mg/kg, route oral; conditions: in vivo
[16] = Volume of distribution in Sprague-Dawley rat at 2.5 mg/kg, iv measured during 1 to 24 hrs by LC-MS method; assay type: ADME, organism-based; parameters: dose 2.5 mg/kg, route intravenous; conditions: in vivo
[17] = Cmax in Sprague-Dawley rat at 2.5 mg/kg, iv measured during 1 to 24 hrs by LC-MS method; assay type: ADME, organism-based; parameters: dose 2.5 mg/kg, route intravenous; conditions: in vivo
[18] = biological target: T1, Prostaglandin G/H synthase 2 (Homo sapiens, UniProt P35354); test: Inhibition of human recombinant COX2 pre-incubated for 15 mins before fluorometric substrate addition by fluorescence based assay
T1 sequence (P35354 whole entry): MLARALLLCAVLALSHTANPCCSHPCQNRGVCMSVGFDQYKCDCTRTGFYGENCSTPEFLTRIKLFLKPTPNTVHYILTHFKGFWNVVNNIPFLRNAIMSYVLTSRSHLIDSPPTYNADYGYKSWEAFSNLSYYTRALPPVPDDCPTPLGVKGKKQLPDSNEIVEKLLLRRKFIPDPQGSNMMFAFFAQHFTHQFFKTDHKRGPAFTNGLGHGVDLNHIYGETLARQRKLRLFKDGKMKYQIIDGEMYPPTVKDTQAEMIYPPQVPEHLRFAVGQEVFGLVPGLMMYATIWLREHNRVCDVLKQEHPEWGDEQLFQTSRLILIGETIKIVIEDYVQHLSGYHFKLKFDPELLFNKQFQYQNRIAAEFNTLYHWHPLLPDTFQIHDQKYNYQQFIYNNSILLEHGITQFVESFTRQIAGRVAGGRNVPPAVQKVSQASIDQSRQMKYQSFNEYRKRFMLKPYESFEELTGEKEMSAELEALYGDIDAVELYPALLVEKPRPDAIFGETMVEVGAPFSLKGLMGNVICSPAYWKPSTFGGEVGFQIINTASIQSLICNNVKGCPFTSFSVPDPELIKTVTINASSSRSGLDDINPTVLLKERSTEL

[19] = biological target: Prostaglandin G/H synthase 1 (Homo sapiens, UniProt P23219); test: Inhibition of human recombinant COX1 pre-incubated for 15 mins before fluorometric substrate addition by fluorescence based assay
Rattus norvegicus [20] = test: Half life in Sprague-Dawley rat at 2.5 mg/kg, iv measured during 1 to 24 hrs by LC-MS method; assay type: ADME, organism-based; parameters: dose 2.5 mg/kg, route intravenous; conditions: in vivo
Rattus norvegicus [21] = test: Antiinflammatory activity in orally dosed Sprague-Dawley rat model of carrageenan-induced air pouch inflammation assessed as reduction in PGE2 level by ELISA method; assay type: functional, organism-based
Rattus norvegicus [22] = test: AUC (0 to infinity) in Sprague-Dawley rat at 2.5 mg/kg, iv measured during 1 to 24 hrs by LC-MS method; assay type: ADME, organism-based, Plasma; parameters: time infinity, dose 2.5 mg/kg, route intravenous; conditions: in vivo
Rattus norvegicus [23] = test: Tmax in Sprague-Dawley rat at 5 mg/kg, po measured during 1 to 24 hrs by LC-MS method; assay type: ADME, organism-based; parameters: dose 5 mg/kg, route oral; conditions: in vivo
[24] = Apparent oral clearance in Sprague-Dawley rat at 5 mg/kg, po measured during 1 to 24 hrs by LC-MS method; assay type: ADME, organism-based; parameters: dose 5 mg/kg, route oral; conditions: in vivo
Rattus norvegicus [25] = test: Antinociceptive activity in orally dosed Sprague-Dawley rat model of carrageenan-induced foot paw hyperalgesia assessed as paw withdrawal latency; assay type: functional, organism-based
[26] = Oral bioavailability in Sprague-Dawley rat at 5 mg/kg measured during 1 to 24 hrs by LC-MS method; assay type: ADME, organism-based; conditions: in vivo
Rattus norvegicus [27] = test: Antiarthritic activity in Lewis rat model of adjuvant-induced arthritis administrated by oral gavage once daily; assay type: functional; conditions: tested as the 2H-labelled form
[28] = Apparent oral clearance in Sprague-Dawley rat at 2.5 mg/kg, iv measured during 1 to 24 hrs by LC-MS method; assay type: ADME, organism-based; parameters: dose 2.5 mg/kg, route oral; conditions: in vivo
[29] = Cmax in Sprague-Dawley rat at 5 mg/kg, po measured during 1 to 24 hrs by LC-MS method; assay type: ADME, organism-based; parameters: dose 5 mg/kg, route oral; conditions: in vivo
Rattus norvegicus [30] = test: Volume of distribution in Sprague-Dawley rat at 5 mg/kg, po measured during 1 to 24 hrs by LC-MS method; assay type: ADME, organism-based; parameters: dose 5 mg/kg, route oral; conditions: in vivo

Prostaglandin G/H synthase 1, sequence (P23219 whole entry): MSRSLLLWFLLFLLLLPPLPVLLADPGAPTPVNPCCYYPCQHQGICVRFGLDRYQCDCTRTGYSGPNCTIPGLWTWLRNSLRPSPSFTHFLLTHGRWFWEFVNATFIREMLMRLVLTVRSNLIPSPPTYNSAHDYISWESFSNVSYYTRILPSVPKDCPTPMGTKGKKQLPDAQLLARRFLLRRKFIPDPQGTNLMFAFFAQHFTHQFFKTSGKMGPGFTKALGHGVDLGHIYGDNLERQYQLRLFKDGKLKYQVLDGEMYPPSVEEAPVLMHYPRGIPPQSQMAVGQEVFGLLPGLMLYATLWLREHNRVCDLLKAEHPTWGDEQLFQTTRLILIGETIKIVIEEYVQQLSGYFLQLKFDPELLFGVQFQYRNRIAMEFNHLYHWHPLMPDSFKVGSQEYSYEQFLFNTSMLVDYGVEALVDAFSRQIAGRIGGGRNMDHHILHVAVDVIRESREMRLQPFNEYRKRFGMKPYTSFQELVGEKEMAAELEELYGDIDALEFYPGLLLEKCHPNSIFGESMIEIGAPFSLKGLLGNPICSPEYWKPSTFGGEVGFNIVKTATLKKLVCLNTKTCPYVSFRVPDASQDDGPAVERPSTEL

Vd [1]: 0.39 L/kg
half-life [2]: 4.54 h
Tmax [3]: 1.25 h
Cmax [4]: 51600 ng/mL
CL/F [5]: 0.783 mL/min/kg
CL/F [6]: 1.25 mL/min/kg
bioavailability [7]: 60.2%
Cmax [8]: 33500 ng/mL
AUC(0-inf) [9]: 223 µg·h/mL
Vd (Rattus norvegicus [10]): 0.491 L/kg
AUC(0-inf) [11]: 403 µg·h/mL
t1/2 (Rattus norvegicus [12]): 5.946 h
Compound: [2H]C([2H])([2H])C([2H])([2H])c1cc(OC(F)(F)F)cc2c1OC(C(F)(F)F)C(C(=O)O)=C2 (stereo not given)

t1/2 (Rattus norvegicus [13]): 1.51 h
EC50 (Rattus norvegicus [14]): 3.47 mg/kg
AUC (Rattus norvegicus [15]): 17.19028 µg·h/mL
Vd [16]: 0.15 L/kg
Cmax [17]: 38600 ng/mL
IC50 [18]: 28 nM
IC50 [19]: > 100000 nM
t1/2 (Rattus norvegicus [20]): 0.58 h
EC50 (Rattus norvegicus [21]): 0.47 mg/kg
AUC (Rattus norvegicus [22]): 14.843535 µg·h/mL
Tmax (Rattus norvegicus [23]): 0.438 h
CL/F [24]: 4.97 mL/min/kg
EC50 (Rattus norvegicus [25]): 3.52 mg/kg
bioavailability [26]: 46.3%
CL/F [28]: 2.87 mL/min/kg
Cmax [29]: 11500 ng/mL
Vd (Rattus norvegicus [30]): 0.65 L/kg
Compound: Cc1cc(Br)cc2c1OC(C(F)(F)F)C(C(=O)O)=C2 (stereo not given)
inhibition (Rattus norvegicus [27]): Dose-dependent effect
